Laboratory results from patent publication US11246965B2, “Compositions and methods for reducing neointima formation” (University of Georgia Research Foundation, Inc., priority 2013, dated 2022).

What was measured:
Endothelial cell C166 = assay: EC proliferation (MTT cell proliferation assay); assay type: cell-based
Experimental: Endothelial cell C166 was purchased from ATCC and grown at 37° C. in a humidified atmosphere of 5% CO2 in DMEM (Invitrogen) supplemented with 10% FBS.
(§1) Cell proliferation was evaluated with 3-(4,5-dimethylthiazol-2-yl)-2,5-diphenyltetrazolium (MTT) assay using a TACS MTT Cell Proliferation Assay Kit (Trivegen). The optical density at 570 nm was measured.

[1] = tested on: Rat aortic smooth muscle cells (SMCs); assay: SMC proliferation (MTT cell proliferation assay); assay type: cell-based
Experimental: Rat aortic smooth muscle cells (SMCs) were cultured by enzyme-digestion method from rat thoracic aorta as described previously (Hofer, et al., Proc Natl Acad Sci USA., 98:6412-6416 (2001), Marquez, et al., Biochem Pharmacol., 41:1821-1829 (1991), (Berg, et al., Eur. J. Biochem., 216:161-167 (1993)). SMC phenotype of the cultured cells was confirmed by the expression of smooth muscle alpha-actin and SM22-alpha.
as §1

[2] = tested on: balloon-injured rat carotid arteries; assay: Re-endothelialization in rat carotid artery balloon injury model (CD31, Evans blue); assay type: in vivo; conditions: 1 mg/kg CPEC, day 14
Experimental: Rat carotid artery balloon injury was performed using 2F Fogarty arterial embolectomy balloon catheter (Baxter Edwards Healthcare) as described previously (Tulis, Methods Mol. Med., 139:1-30 (2007)). 7, 14 or 60 days later, the balloon-injured arteries were perfused with saline, fixed with 4% paraformaldehyde, embedded in paraffin, and sectioned. Subsequent morphometric analyses were performed in a double-blinded manner. Ten sections that were evenly distributed in the vessel segments were collected for analysis. The sections were stained with modified hematoxylin and eosin or elastica van Gieson (VG) staining. Cross-sectional images were captured with a Nikon microscope (Nikon America Inc). The circumference of the lumen, internal elastic lamina, and external elastic lamina were measured using Image-pro Plus Software. For immunohistochemistry (IHC) staining, sections were rehydrated, blocked with 5% goat serum, permeabilized with 0.01% Triton X-100 in PBS, and incubated with primary antibodies at 4° C. overnight followed by incubation with horseradish peroxidase-conjugated secondary antibody. The sections were counterstained with hematoxylin.
To determine if CTPS1 plays a role in re-endothelialization during vascular remodeling in vivo, CPEC was administered systematically via osmotic pump into rats with balloon-injury or mice with wire-injury in their carotid arteries. […]

[3] = tested on: Rat aortic smooth muscle cells (SMCs); assay: In vitro SMC apoptosis, PI/Annexin V flow cytometry; assay type: cell-based; conditions: 24 h treatment with 500 nM
Experimental: (§2) In vivo cell apoptosis was evaluated by detecting DNA fragmentation using the terminal deoxynucleotidyl transferase (TdT)-mediated dUTP-digoxigenin nick end-labeling method (TUNEL kit, Roche, USA). Apoptotic cells were observed under a fluorescent microscope. In vitro cell apoptosis was measured by Flow Cytometry. Cells were stained with both Annexin V-FITC (BD Biosciences) and propidium iodide (PI) and analyzed on a FACSCALIBUR™ (Becton Dickinson). The percentages of positive-stained cells were quantified using […]™ software (Becton Dickinson). Non-stained cells served as controls.

neointima SMCs = assay: In vivo cell apoptosis by TUNEL assay in injured arteries; parameters: species or system rat; conditions: 2 mg/kg b.w./day
Experimental: as §2
To confirm the specificity of CTPS1 function, CTPS1 was knockdown using adenoviral-mediated shRNA delivery in injured arteries.

CTP synthetase = conditions: cited from earlier work; for CTPS activity: literature
[4] = tested on: wire-injured mouse carotid artery; assay: Mouse carotid artery wire injury model, re-endothelialization (Evans Blue); assay type: in vivo; conditions: 10 mg/kg/day, in the presence of CPEC
Experimental: Mice were anesthetized with ketamine hydrochloride (80 mg/kg IP) and xylazine (5 mg/kg IP), a 0.38-mm flexible angioplasty guidewire was advanced by 1 cm via a transverse arteriotomy of the external carotid artery, and endothelial denudation of the common carotid artery was achieved by 3 rotational passes (Werner, et al., Circ. Res., 93:e17-e24 (2003)).
To further establish CTPS function in re-endothelialization after vascular injury, the endothelial denudation and re-endothelialization was tested in a different model, i.e., mouse wire-injury model. […] Systematic administration of CPEC was achieved via osmotic pump (1 mg/kg/day). Re-endothelialization in mouse arteries occurred rapidly following injury (FIG. 6B). 5 days after injury, re-endothelialization was completed, consistent with the previous reports (Hagensen, et al., Cardiovasc Res., 93:223-231 (2012)).

[5] = abundant (10 μM) cytidine alone (FIG. 6D)

For `Nc1ccn([C@@H]2O[C@H](COP(=O)(O)OP(=O)(O)OP(=O)(O)O)[C@@H](O)[C@H]2O)c(=O)n1` [CTP], the EC proliferation (Endothelial cell C166; [5]) was “not to be able to stimulate” and the SMC proliferation [1, 5] was “not to be able to stimulate”.

In the case of `Nc1ccn([C@@H]2C=C(CO)[C@@H](O)[C@H]2O)c(=O)n1` [CPEC, cyclopentenyl cytosine], the “re-endothelialization area of the injured vessels (Evans blue)” value [2] was 66%, the SMC apoptosis [3] was “did not induce SMC apoptosis” and the “in vivo cell apoptosis (TUNEL)” value (neointima SMCs) was “no apoptotic cells were observed”.

In the case of `[N-]=[N+]=CC(=O)CC[C@H](N)C(=O)O` [6-diazo-5-oxonorleucine, 6-diazo-5-oxo-L-norleucin], the CTPS activity (CTP synthetase) is listed as “effectively block CTPS activity”.

For carbodine, the CTPS activity (CTP synthetase) is given as “effectively block CTPS activity”.

With `CC(=O)O[C@H]1C(=O)[C@@]2(C)[C@H]([C@H](OC(=O)c3ccccc3)[C@]3(O)C[C@H](OC(=O)[C@H](O)[C@@H](NC(=O)c4ccccc4)c4ccccc4)C(C)=C1C3(C)C)[C@]1(OC(C)=O)CO[C@@H]1C[C@@H]2O` [paclitaxel, Paclitaxel] the EC proliferation (Endothelial cell C166; 20 nmol/L or 500 nmol/L) was “suppressed”, the “restoration of inhibitory effect on EC and SMC proliferation by cytidine” value (Endothelial cell C166; 500 nM paclitaxel with 10 μM cytidine) was “could not be restored by cytidine” and the “relative sensitivity of SMCs and ECs (proliferation)” value (Endothelial cell C166; ECs compared with SMCs) was “ECs seemed to be more sensitive to paclitaxel than SMCs”. For the same molecule, the SMC proliferation ([1]; 20 nmol/L or 500 nmol/L) was “suppressed”.

With `Nc1ccn([C@@H]2O[C@H](CO)[C@@H](O)[C@H]2O)c(=O)n1` [cytidine] the “restoration of EC proliferation blocked by high dosage of CPEC” value (Endothelial cell C166; 500 nM CPEC + 10 μM cytidine) was “restored EC” and the “restoration of SMC proliferation blocked by high dosage of CPEC” value ([1]; 500 nM CPEC + 10 μM cytidine) was “not SMC”.

In the case of `O=c1oc2c(O)c(O)cc3c(=O)oc4c(O)c(O)cc1c4c23` [EA, ellagic acid], the “cytidine-restored EC proliferation” value (Endothelial cell C166; CPEC + cytidine) was “blocked cytidine-restored EC proliferation in a dose-dependent manner” and the re-endothelialization [4] was “dramatically impaired”.

For `N[C@H](C(=O)O)[C@@H]1CC(Br)=NO1` [3-bromoacivicin], the “CTP synthetase inhibitor potency relative to 3-chloro analog (acivicin)” value (CTP synthetase; Conti, et al, ChemMedChem (2011)) is given as “three times as potent”.
